According to patent publication US20060099712A1, “Correlation of anti-cancer activity of dyes with redox potentials” (Eastman Kodak Company, priority 2004, published 2006):
Where two headings read alike, the source gives them in different places.

Columns and labels:
[1] = Electrochemical reduction potential (Er) measurement, SHACV / fast scan CV; format: physicochemical
Source text: In the practice of this invention the reduction potential of a given dye may be determined in various ways. If available, the published reduction potential may be employed. Reduction potentials for numerous cyanine and merocyanine dyes are available in the literature. (See J. Lenhard, Journal of Imaging Science, vol. 30 pp. 27-35 (1986).) A large amount of data has been generated on the reduction and oxidation potentials of these dyes from their use in photography and related arts where they are employed, inter alia, as spectral sensitizers.
If a published reduction potential is not available, suitable techniques for measuring reduction potential are available. Accurate electrochemical oxidation and reduction potentials for these organic dyes can be measured by the techniques of fast scan cyclic voltommetry (CV) or second harmonic ac voltommetry (SHACV). SHACV measurements are made as described by Lenhard in the Journal of Imaging Science volume 30, 1986 pp 27-35 using a commercially available (Princeton Applied Research Corp.) potentiostat in conjunction with voltage programmer, a conventional lock-in amplifier, and a low-distortion oscillator. The SHACV method utilizes an ac voltage waveform (of a frequency greater than or equal to 400 hz) that is superimposed on a DC potential ramp. On the other hand, the measurement of the oxidation or reduction potential by the CV method utilizes a (high frequency) triangular voltage waveform. The general procedures for measuring potentials by this method have been described by Wightman in Analytical Chemistry, 1984, vol. 56, pp524 and Journal of Physical Chemistry, 1984, vol. 88, pp3915. The specific application of this technique to the measurement of cyanine dye potentials has been reported by Nomura and Okazaki, Chemistry Letters, 1990, pp2231-2234. Commercial instrumentation especially designed for fast scan (i.e., high frequency) CV is available. It is noteworthy that because of the complicated nature of many of the cyanine dyes, electrochemical reactions, conventional slow scan cyclic voltommetry or polarography methods (as described by R. Large in Photographic Sensitivity, R. Cox, ed., Academic Press, New York, 1973, pp 241-263) provide only approximate values for oxidation and reduction potentials. Errors as large as 0.4 V from the true potential can be obtained by using slow scan CV or electrochemical methods.
The procedure for measuring the oxidation or reduction potential by the SHACV or fast scan CV method utilizes solutions of acetonitrile (or similar nonaqueous solvent) with added tetrabutylammonium tetrafluoroborate TBABF4 at a concentration of 0.1 M and ca. 5×10^−4 M of the cyanine, oxonol, or merocyanine dye. For measurement of the reduction potential the solution must be deaerated with argon prior to examination. The preferred working electrode is a Pt disk (ca. 0.02 cm^2) that is polished with 1 μm diamond paste, rinsed with water, and dried before each experiment. The reference electrode is a NaCl saturated calomel electrode. The cell and reference electrodes are maintained at 22 C. A value of 40 mV is added to the measured potentials to convert the number to that corresponding to an Ag/AgCl reference electrode. If a solvent other than acetonitrile is used then the measured potential must be referenced to a standard organic redox system such as ferrocene and corrected accordingly.
SHACV (Second Harmonic Alternating Current Voltametry) measurements are made as described by Lenhard in the Journal of Imaging Science volume 30, 1986 pp 27-35 using a commercially available (Princeton Applied Research Corp.) potentiostat in conjunction with voltage programmer, a conventional lock-in amplifier, and a low-distortion oscillator. The SHACV method utilizes an ac voltage waveform (of a frequency greater than or equal to 400 hz) that is superimposed on a DC potential ramp. […]

[2] = tested on: CV-1 Normal Monkey Kidney Epithelial; experiment: Clonogenic dye screening assay, CV-1 cells (IC50); format: cell-based, African green monkey; conditions: Primates, unit from method
Source text: CX-1 is a cancerous human colon adenocarcinoma cell line. CV-1 is a non-cancerous control, which is a kidney epithelial cell line from an African green monkey. IC50 is the dye concentration at which 50% of the cells are killed. Selectivity or kill ratio is defined as the ratio of […] at IC50 for both CX-1 and CV-1. A ratio with a high number indicates a high selectivity.
The dyes were screened in two cell lines. CX-1 is a human colon adenocarcinoma cell line. CV-1 is a kidney epithelial cell line from an African green monkey. CV-1 was used as a reference because no normal human epithelial cell line is available for clonogenic assay.
In the initial screen, dyes were examined at six different concentrations to generate a dose response curve. An IC50 value, the concentration at which 50% of the cells are killed, was then calculated. Initially, a dye concentration of 1.0 μg/mL was the highest examined for the CX-1 cell line and 0.005 μg/mL was the lower limit. The corresponding limits on the CV-1 cell line were […].
The screening procedure used a response curve that was determined from eight dye concentrations. The upper and lower limits of CX-1 were 0.32 and 0.0015 μg/mL, respectively, and the corresponding revised limits on CV-1 were 3.2 and 0.025 μg/mL. The screening results were reported by assigning an IC50 value to each dye for the CV-1 and CX-1 cell lines. These values will be referred to herein simply as CV and CX. The most desirable result would be to have a dye that was highly toxic to carcinoma cells but nontoxic to ‘normal’ cells. One measure of this type of selectivity is the ratio of the IC50's in the normal cell line to that in the carcinoma line, CV/CX.
Compounds are screened via an in vitro assay. CV-1 and CX-1 cells are seeded into separate assay plates. The plates are treated with varying concentrations of test compounds, rinsed, and colonies allowed to grow. IC50's are determined and drugs evaluated based on their selectivity and toxicity. Assay Steps: • I. Seeding Cells • II. Weighing • III. Preparation of Solution • IV. Treatment • V. Rinsing and Feeding • VI. Fixing • VII. IC50 Determination I. Seeding Cells
The cells should be seeded 16-30 hours before treatment. The media for CV-1 cells is DME+5% calf serum +5% Nuserum. The media for CX-1 cells is RPMI/DME (50/50)+5% calf serum +5% Nuserum.
(c) number of cells based on 2000 CX-1 cells/well and 1000 CV-1 cells/well. NOTE: Always make enough cell suspension for 1 extra plate to allow for volume loss during transfers.
• (a) For CV-1: 256 ug/ml-256 ul of 1 mg/ml stock +744 ul DMSO • (b) For CX-1: 25.6 ug/ml-100 ul of 256 ug/ml+900 ul DMSO IV. Treatment • 1. Each plate is treated with 4 test compounds, one positive control and one negative control. • 2. Serial dilutions of the compounds are made in the following way:
2 multi-well pipetters are used. One is set for 10 ul and one for 200 ul. Each is equipped with 6 tips spaced such that they fit into the 6 rows of a plate. 390 ul of media is added to the first column of each plate. 10 ul each of 4 compound solutions, a positive and a negative control are taken up and put into the first column of wells. The 200 ul pipetter is then placed in the same wells, pipetted up and down 3 times and two 200 ul aliquots are moved to the next column of wells. This column is pipetted up and down 3 times and 400 ul moved to column 3, etc. The final 400 ul excess from column 8 is discarded.
• 3. Label the plates along the front, each row −1 compound. • 4. Incubate the plates at 37° C. for 3 hrs. V. Rinsing • 1. Prepare several bottles of CX-1 and CV-1 media. • 2. Check for precipitate in first column of each plate and note. • 3. Starting with the plates treated first, rinse several plates at a time by aspirating the treatments and refilling each well with 0.5-1.0 ml of the rinse media. Aspirate and refill 2 more times for a total of 3 rinses. • 4.

[3] = tested on: CX-1 Human Colon Carcinoma; experiment: Clonogenic dye screening assay, CX-1 cells (IC50); format: cell-based; conditions: for IC50: Homo sapiens, unit from method; for Selectivity: Table 1, cell line not given, values equal CV/CX of Table II; for CV/CX (selectivity, kill ratio): ratio of IC50 in normal CV-1 line to IC50 in carcinoma CX-1 line
How it was run: (§1)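 Cells seeded 16-30 h ahead (2000 CX-1 or 1000 CV-1 per well), exposed to serially diluted dyes for 3 h at 37 °C, rinsed three times, then grown into colonies. Eight-point curves spanned 0.32-0.0015 μg/mL (CX-1) and 3.2-0.025 μg/mL (CV-1). IC50 is the concentration killing 50% of cells.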

[4] = Dye solubility (water, 5% dextrose/water); format: physicochemical
Source text: Dye solubility is also a factor, since compounds having low water solubility are difficult or impossible to include in in vivo testing.
S13 is one of the simplest cyanine dye structures possible (in this nomenclature the S refers to the sulfur, the 1 indicates one carbon on the nitrogen and 3 indicates a 3 methine chain). […] A synthetic challenge will be to enhance the activity/selectivity of this dye and retain its good water solubility. [drawing 23]

[5] = Clonogenic dye screening assay, CX-1 cells (IC50); format: cell-based, human; conditions: Homo sapiens, CX-1, Table XII column 5; unit from method; read-out: CV (Table XII)
How it was run: as §1

[6] = tested on: CCL 105 Human Adrenal Cortex Carcinoma; experiment: Initial in vitro screening, adrenal cortex carcinoma cells; format: cell-based; conditions: cell line 8, CCL 105 human adrenal cortex carcinoma; unit from method; read-out: IC50 (concentration at which 50% of the cells of the culture are killed)
Source text: (§2) Other publications have shown that some cyanine dyes show anti-cancer activity. See I. Minami, Y. Kozai, H. Nomura and T. Tashiro, Chem. Phar. Bull. 30:3106 (1982); W. M. Anderson, D. L. Delinick, L. Benninger, J. M. Wood, S. T. Smiley and L. B. Chen, Biochemical Pharmacology, 45:691 (1993). […] (See L. G. S. Brooker, L. A. Sweet, Science, 105, (1947) and I. Minami, Y. Kozai, H. Nomura, T. Tashiro, Chem. Pharm. Bull., 30,3106 (1982) on chemotherapeutic investigations of cyanine dyes.) Table I lists initial in vitro screening results in various cell lines and a comparison with Adriamycin, which is a widely used chemotherapeutic agent.
(§3) Description of Cell Line • 1. CV-1 Normal Monkey Kidney Epithelial (control) • 2. CX-1 Human Colon Carcinoma • 3. Human Breast Carcinoma • 4. Human Pancreatic Carcinoma • 5. Human Bladder Carcinoma • 6. Human Lung Carcinoma • 7. Human Squamous Cell Carcinoma • 8. Human Adrenal Cortex Carcinoma

[7] = tested on: CRL 1420 Human Pancreatic Carcinoma; experiment: Initial in vitro screening, pancreatic carcinoma cells; format: cell-based; conditions: cell line 4, CRL 1420 human pancreatic carcinoma; unit from method; read-out: IC50 (concentration at which 50% of the cells of the culture are killed)
Source text: as §2, §3

[8] = tested on: CCL 185 Human Lung Carcinoma; experiment: Initial in vitro screening, lung carcinoma cells; format: cell-based; conditions: cell line 6, CCL 185 human lung carcinoma; unit from method; read-out: IC50 (concentration at which 50% of the cells of the culture are killed)
Source text: as §2, §3

[9] = tested on: MCF-7 Human Breast Carcinoma; experiment: Initial in vitro screening, breast carcinoma cells; format: cell-based; conditions: MCF7; cell line 3, MCF-7 human breast carcinoma; unit from method; read-out: IC50 (concentration at which 50% of the cells of the culture are killed)
Source text: as §2, §3

[10] = tested on: SCC 68 Human Squamous Cell Carcinoma; experiment: Initial in vitro screening, squamous cell carcinoma cells; format: cell-based; conditions: cell line 7, SCC 68 human squamous cell carcinoma; unit from method; read-out: IC50 (concentration at which 50% of the cells of the culture are killed)
Source text: as §2, §3

[11] = tested on: EJ Human Bladder Carcinoma; experiment: Initial in vitro screening, bladder carcinoma cells; format: cell-based; conditions: cell line 5, EJ human bladder carcinoma; unit from method; read-out: IC50 (concentration at which 50% of the cells of the culture are killed)
Source text: as §2, §3

[12] = CV-1, 3 hrs treatment, colonies after 7-10 days, read-out: CV (IC50 in the CV-1 cell line)
[13] = CX-1, 3 hrs treatment, colonies after 7-10 days, read-out: CX (IC50 in the CX-1 cell line)

For `CCN1/C(=c2\s/c(=c3\s/c(=C/c4sc5ccccc5[n+]4CC)n(CC)c3=O)n(CC)c2=O)Sc2ccccc21` [Dye D-112], the “ER(v), electrochemical reduction potential” value [1] was −1.1 V, the IC50 [2, 12] was 9 mg/L and the IC50 [3, 13] was 0.01 mg/L. The Selectivity [3] was 900 and the “CV/CX (selectivity, kill ratio)” value [3] was 900.

For `CN1/C(=C/C=C/c2sc3ccccc3[n+]2C)Sc2ccccc21` [Dye S13], the “solubility in 5% dextrose/water solutions” value ([4]; 5% dextrose/water) was “good solubility”.

For `Clc1ccc2c(c1)N1CCC(/C=C3\CC[n+]4c3sc3ccc(Cl)cc34)=C1S2` [Dye D-168], the “ER(v), electrochemical reduction potential” value [1] was −0.9 V, the IC50 [3, 13] was 3 mg/L and the Selectivity [3] was 100.0. For the same molecule, the “CV/CX (selectivity, kill ratio)” value [3] was 100.0.

For `CCN1/C(=C/C=C/c2sc3cc4c(cc3[n+]2CC)OCO4)Oc2ccccc21` [Dye D-163], the IC50 [2, 12] was 0.3 mg/L, the IC50 [3, 13] was 0.3 mg/L and the “CV/CX (selectivity, kill ratio)” value [3] was greater than 60.0. The IC50 [5] was less than 0.005 mg/L.

For `CN1/C(=C/C=C/c2sc3cc4ccccc4cc3[n+]2C)Sc2cc3ccccc3cc21.Cc1ccc(S(=O)(=O)[O-])cc1` [Dye D-140], the “CX (IC50 in the CX-1 cell line)” value ([3]; 3 hrs treatment, colonies after 7-10 days, unit from method b117-118) was less than 0.005 mg/L, the “CV/CX (selectivity, kill ratio)” value [3] was 60 and the solubility ([4]; among compounds with enhanced activity) was “most desirably soluble”.

In the case of `CC[n+]1c(/C=C/C(C(=O)c2ccccc2)=P(c2ccccc2)(c2ccccc2)c2ccccc2)sc2ccccc21` [Dye D-148], the “ER(v), electrochemical reduction potential” value [1] is reported as −1.15 V, the IC50 [2, 12] is reported as greater than 10 mg/L and the IC50 [3, 13] is reported as 0.04 mg/L. The Selectivity [3] was 250 and the “CV/CX (selectivity, kill ratio)” value [3] was 250.

`CCN1/C(=C/N=N/c2sc3ccccc3[n+]2CC)Sc2ccccc21` [Dye O-1, reference compound] showed an IC50 [6] of 0.3 mg/L, an IC50 [7] of 0.75 mg/L and an IC50 ([2]; CV-1, cell line 1, CV-1 normal control, read-out: IC50 (concentration at which 50% of the cells of the culture are killed)) of 7.5 mg/L. For the same molecule, the IC50 ([3]; CX-1, cell line 2, CX-1, read-out: IC50 (concentration at which 50% of the cells of the culture are killed)) was 0.5 mg/L, the IC50 [8] was 0.8 mg/L and the IC50 [9] was 0.3 mg/L. For the same molecule, the IC50 [10] was 0.3 mg/L and the IC50 [11] was 0.3 mg/L.
